Experimental data reported in patent publication US10227331B2 (priority 2015, dated 2019).

How the values were obtained:
[1] = tested on: P. aeruginosa expressing IMP-1, efflux− (MB9799); assay: Efflux: concentration of MBL inhibitor which restores susceptibility to imipenem; type: cell-based, Pseudomonas aeruginosa; conditions: imipenem at 2 μg/mL, in the presence of a class A, C, D serine β-lactamase inhibitor closely related to relebactam
Source text: (§1) The strain background is Pseudomonas aeruginosa PAO1.

[2] = tested on: Klebsiella pneumoniae expressing VIM-1 (IHMA599644); type: cell-based; conditions: with imipenem 1 μg/ml; 95% inhibition of bacterial growth
How it was run: (§2)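 Restoration of imipenem susceptibility (1 μg/ml imipenem) was judged by absorbance after 22–24 h at 35° C. Test compound was added to bacteria suspended 1:100 in 1.1× CAMHB from overnight blood-agar cultures.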

[3] = tested on: Serratia marcescens expressing IMP-1 (CL5741); type: cell-based; conditions: with imipenem 1 μg/ml; 95% inhibition of bacterial growth
How it was run: as §2

[4] = tested on: Escherichia coli expressing NDM-1 (CLB30005, CLB30016); type: cell-based; conditions: with imipenem 1 μg/ml; 95% inhibition of bacterial growth
How it was run: as §2

[5] = tested on: P. aeruginosa expressing IMP-1, efflux+ (MB9798); type: cell-based, Pseudomonas aeruginosa; conditions: for P. aeruginosa expressing IMP-1, efflux+ (MB9798) MITC95: imipenem at 2 μg/mL, in the presence of a class A, C, D serine β-lactamase inhibitor closely related to relebactam; for Efflux ratio: ratio MITC95 PA_9798/MITC95 PA_9799
Source text: as §1

[6] = molecular target: VIM-1 (Pseudomonas aeruginosa (strain ATCC 15692 / DSM 22644 / CIP 104116 / JCM 14847 / LMG 12228 / 1C / PRS 101 / PAO1), UniProt A0A0F7KYQ8); assay: biochemical; conditions: CCF2-FA substrate, 2 hours at 25° C
How it was run: (§3)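 IC50 values derive from 4-parameter fits of percent inhibition against inhibitor concentration on semi-log axes. Activity was monitored by fluorescence with the CCF2-FA substrate after a 2-hour, 25° C incubation of compound, enzyme and substrate.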

[7] = molecular target: NDM-1 (Klebsiella pneumoniae, UniProt C7C422); assay: biochemical; type: biochemical; conditions: CCF2-FA substrate, 2 hours at 25° C; read-out: NDM-1 IC50
How it was run: as §3

[8] = molecular target: IMP-1 (Serratia marcescens, UniProt P52699); assay: biochemical; type: biochemical; conditions: CCF2-FA substrate, 2 hours at 25° C; read-out: IMP-1 IC50
How it was run: as §3

Chain of NDM-1 (C7C422 whole entry, looked up, species assumed): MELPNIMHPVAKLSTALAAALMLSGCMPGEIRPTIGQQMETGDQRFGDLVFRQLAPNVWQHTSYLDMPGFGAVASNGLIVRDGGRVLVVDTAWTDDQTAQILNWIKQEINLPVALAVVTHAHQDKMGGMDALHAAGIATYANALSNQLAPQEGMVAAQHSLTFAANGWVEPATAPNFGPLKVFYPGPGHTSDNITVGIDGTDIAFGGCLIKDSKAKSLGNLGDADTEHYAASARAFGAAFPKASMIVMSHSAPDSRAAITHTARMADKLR
Chain of IMP-1 (P52699 whole entry, looked up, species assumed): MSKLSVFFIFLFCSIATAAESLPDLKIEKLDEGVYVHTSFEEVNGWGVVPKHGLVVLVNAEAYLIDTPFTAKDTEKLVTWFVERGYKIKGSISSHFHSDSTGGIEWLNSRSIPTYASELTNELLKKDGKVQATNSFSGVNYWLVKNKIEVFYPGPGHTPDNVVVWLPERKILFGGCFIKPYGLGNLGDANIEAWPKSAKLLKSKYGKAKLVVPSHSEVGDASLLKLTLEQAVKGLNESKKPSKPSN

Nc1cc2cccc(-c3ccc(S(=O)(=O)C4CNC4)c(S(N)(=O)=O)c3-c3nn[nH]n3)c2cn1 [Example 35, 3-(3-aminoisoquinolin-8-yl)-6-(azetidin-3-ylsulfonyl)-2-(2H-tetrazol-5-yl)benzenesulfonamide]
P. aeruginosa expressing IMP-1, efflux− (MB9799) MITC95 [1]: 1.563 µM
Klebsiella pneumoniae expressing VIM-1 (IHMA599644) MITC95 [2]: 6.25 µM
Serratia marcescens expressing IMP-1 (CL5741) MITC95 [3]: 1.563 µM
Escherichia coli expressing NDM-1 (CLB30016) MITC95 [4]: 1.563 µM
P. aeruginosa expressing IMP-1, efflux+ (MB9798) MITC95 [5]: 1.563 µM
Efflux ratio [5]: 1.00
IC50 [6]: 0.243 nM
IC50 [7]: 0.0695 nM
IC50 [8]: 0.503 nM

Nc1ccc2cccc(-c3ccc(S(=O)(=O)C4CNC4)c(S(N)(=O)=O)c3-c3nn[nH]n3)c2n1 [Example 36, 3-(2-aminoquinolin-8-yl)-6-(azetidin-3-ylsulfonyl)-2-(2H-tetrazol-5-yl)benzenesulfonamide]
P. aeruginosa expressing IMP-1, efflux− (MB9799) MITC95 [1]: 0.7813 µM
Klebsiella pneumoniae expressing VIM-1 (IHMA599644) MITC95 [2]: 1.563 µM
Serratia marcescens expressing IMP-1 (CL5741) MITC95 [3]: 0.7813 µM
Escherichia coli expressing NDM-1 (CLB30016) MITC95 [4]: 3.125 µM
P. aeruginosa expressing IMP-1, efflux+ (MB9798) MITC95 [5]: 0.7813 µM
Efflux ratio [5]: 1.00
IC50 [6]: 0.282 nM
IC50 [7]: 0.104 nM
IC50 [8]: 0.357 nM

Nc1nc2c(-c3ccc(S(=O)(=O)C4CNC4)c(S(N)(=O)=O)c3-c3nn[nH]n3)cccc2c(=O)[nH]1 [Example 37, 3-(2-amino-4-oxo-3,4-dihydroquinazolin-8-yl)-6-(azetidin-3-ylsulfonyl)-2-(2H-tetrazol-5-yl)benzenesulfonamide]
P. aeruginosa expressing IMP-1, efflux− (MB9799) MITC95 [1]: 1.563 µM
Klebsiella pneumoniae expressing VIM-1 (IHMA599644) MITC95 [2]: 6.25 µM
Serratia marcescens expressing IMP-1 (CL5741) MITC95 [3]: 3.125 µM
Escherichia coli expressing NDM-1 (CLB30016) MITC95 [4]: 25 µM
P. aeruginosa expressing IMP-1, efflux+ (MB9798) MITC95 [5]: 3.125 µM
Efflux ratio [5]: 2.00
IC50 [6]: 0.348 nM
IC50 [7]: 0.081 nM
IC50 [8]: 1.9 nM

Nc1nc2c(-c3ccc(S(=O)(=O)C4CNC4)c(S(N)(=O)=O)c3-c3nn[nH]n3)ccc(C(=O)O)c2s1 [Example 38, 2-amino-4-(4-(azetidin-3-ylsulfonyl)-3-sulfamoyl-2-(2H-tetrazol-5-yl)phenyl)benzo[d]thiazole-7-carboxylic Acid]
P. aeruginosa expressing IMP-1, efflux− (MB9799) MITC95 [1]: 6.25 µM
Klebsiella pneumoniae expressing VIM-1 (IHMA599644) MITC95 [2]: 25 µM
Serratia marcescens expressing IMP-1 (CL5741) MITC95 [3]: 12.5 µM
Escherichia coli expressing NDM-1 (CLB30016) MITC95 [4]: 31.25 µM
P. aeruginosa expressing IMP-1, efflux+ (MB9798) MITC95 [5]: 9.375 µM
Efflux ratio [5]: 1.50
IC50 [6]: 0.341 nM
IC50 [7]: 0.0286 nM
IC50 [8]: 0.126 nM

NC(=O)c1ccc(-c2ccc(S(=O)(=O)C3CNC3)c(S(N)(=O)=O)c2-c2nn[nH]n2)c2nc(N)sc12 [Example 39, 2-amino-4-(4-(azetidin-3-ylsulfonyl)-3-sulfamoyl-2-(2H-tetrazol-5-yl)phenyl)benzo[d]thiazole-7-carboxamide]
P. aeruginosa expressing IMP-1, efflux− (MB9799) MITC95 [1]: 1.563 µM
Klebsiella pneumoniae expressing VIM-1 (IHMA599644) MITC95 [2]: 3.125 µM
Serratia marcescens expressing IMP-1 (CL5741) MITC95 [3]: 3.125 µM
Escherichia coli expressing NDM-1 (CLB30016) MITC95 [4]: 1.563 µM
P. aeruginosa expressing IMP-1, efflux+ (MB9798) MITC95 [5]: 0.7813 µM
Efflux ratio [5]: 0.50
IC50 [6]: 0.129 nM
IC50 [7]: 0.0303 nM
IC50 [8]: 0.276 nM

Nc1nc2cc(-c3ccc(S(=O)(=O)C4CNC4)c(S(N)(=O)=O)c3-c3nn[nH]n3)ccc2[nH]1 [Example 40, 3-(2-amino-1H-benzo[d]imidazol-5-yl)-6-(azetidin-3-ylsulfonyl)-2-(2H-tetrazol-5-yl)benzenesulfonamide]
P. aeruginosa expressing IMP-1, efflux− (MB9799) MITC95 [1]: 0.5573 µM
Klebsiella pneumoniae expressing VIM-1 (IHMA599644) MITC95 [2]: 1.375 µM
Serratia marcescens expressing IMP-1 (CL5741) MITC95 [3]: 0.5573 µM
Escherichia coli expressing NDM-1 (CLB30016) MITC95 [4]: 0.4453 µM
P. aeruginosa expressing IMP-1, efflux+ (MB9798) MITC95 [5]: 3.125 µM
Efflux ratio [5]: 5.61
IC50 [6]: 0.348 nM
IC50 [7]: 0.409 nM
IC50 [8]: 1.99 nM

Nc1nc2cccc(-c3ccc(S(=O)(=O)C4CCNCC4)c(S(N)(=O)=O)c3-c3nn[nH]n3)c2[nH]1 [Example 42, 3-(2-amino-3H-benzo[d]imidazol-4-yl)-6-(piperidin-4-ylsulfonyl)-2-(2H-tetrazol-5-yl)benzenesulfonamide]
P. aeruginosa expressing IMP-1, efflux− (MB9799) MITC95 [1]: 0.7813 µM
Klebsiella pneumoniae expressing VIM-1 (IHMA599644) MITC95 [2]: 1.563 µM
Serratia marcescens expressing IMP-1 (CL5741) MITC95 [3]: 1.563 µM
Escherichia coli expressing NDM-1 (CLB30016) MITC95 [4]: 0.5859 µM
P. aeruginosa expressing IMP-1, efflux+ (MB9798) MITC95 [5]: 0.7813 µM
Efflux ratio [5]: 1.00
IC50 [6]: 0.306 nM
IC50 [7]: 0.177 nM
IC50 [8]: 1.19 nM

Nc1nc2c(-c3ccc(S(=O)(=O)C4CNC4)c(S(N)(=O)=O)c3-c3nn[nH]n3)cccc2[nH]1 [Example 43, 3-(2-amino-1H-benzo[d]imidazol-4-yl)-6-(azetidin-3-ylsulfonyl)-2-(2H-tetrazol-5-yl)benzenesulfonamide]
P. aeruginosa expressing IMP-1, efflux− (MB9799) MITC95 [1]: 0.6406 µM
Klebsiella pneumoniae expressing VIM-1 (IHMA599644) MITC95 [2]: 1.151 µM
Serratia marcescens expressing IMP-1 (CL5741) MITC95 [3]: 0.7982 µM
Escherichia coli expressing NDM-1 (CLB30016) MITC95 [4]: 0.2902 µM
P. aeruginosa expressing IMP-1, efflux+ (MB9798) MITC95 [5]: 0.6081 µM
Efflux ratio [5]: 0.95
IC50 [6]: 0.258 nM
IC50 [7]: 0.0835 nM
IC50 [8]: 0.828 nM

CC(=O)N1CCC(S(=O)(=O)c2ccc(-c3cccc4nc(N)[nH]c34)c(-c3nn[nH]n3)c2S(N)(=O)=O)CC1 [Example 44, 6-(1-acetylpiperidin-4-ylsulfonyl)-3-(2-amino-3H-benzo[d]imidazol-4-yl)-2-(2H-tetrazol-5-yl)benzenesulfonamide]
P. aeruginosa expressing IMP-1, efflux− (MB9799) MITC95 [1]: 3.125 µM
Klebsiella pneumoniae expressing VIM-1 (IHMA599644) MITC95 [2]: 25 µM
Serratia marcescens expressing IMP-1 (CL5741) MITC95 [3]: 6.25 µM
Escherichia coli expressing NDM-1 (CLB30016) MITC95 [4]: 6.25 µM
P. aeruginosa expressing IMP-1, efflux+ (MB9798) MITC95 [5]: 100 µM
Efflux ratio [5]: 32.00
IC50 [6]: 0.299 nM
IC50 [7]: 0.447 nM
IC50 [8]: 1.98 nM

CS(=O)(=O)N1CCC(S(=O)(=O)c2ccc(-c3cccc4nc(N)[nH]c34)c(-c3nn[nH]n3)c2S(N)(=O)=O)CC1 [Example 45, 3-(2-amino-3H-benzo[d]imidazol-4-yl)-6-(1-(methylsulfonyl)piperidin-4-ylsulfonyl)-2-(2H-tetrazol-5-yl)benzenesulfonamide]
P. aeruginosa expressing IMP-1, efflux− (MB9799) MITC95 [1]: 3.125 µM
Klebsiella pneumoniae expressing VIM-1 (IHMA599644) MITC95 [2]: 6.25 µM
Serratia marcescens expressing IMP-1 (CL5741) MITC95 [3]: 6.25 µM
Escherichia coli expressing NDM-1 (CLB30016) MITC95 [4]: 25 µM
P. aeruginosa expressing IMP-1, efflux+ (MB9798) MITC95 [5]: 50 µM
Efflux ratio [5]: 16.00
IC50 [6]: 0.135 nM
IC50 [7]: 0.29 nM
IC50 [8]: 1.69 nM

CCOC(=O)N1CCC(S(=O)(=O)c2ccc(-c3cccc4nc(N)[nH]c34)c(-c3nn[nH]n3)c2S(N)(=O)=O)CC1 [Example 46, ethyl 4-(4-(2-amino-3H-benzo[d]imidazol-4-yl)-2-sulfamoyl-3-(2H-tetrazol-5-yl)phenylsulfonyl)piperidine-1-carboxylate]
P. aeruginosa expressing IMP-1, efflux− (MB9799) MITC95 [1]: 3.125 µM
Klebsiella pneumoniae expressing VIM-1 (IHMA599644) MITC95 [2]: 25 µM
Serratia marcescens expressing IMP-1 (CL5741) MITC95 [3]: 25 µM
Escherichia coli expressing NDM-1 (CLB30016) MITC95 [4]: 6.25 µM
P. aeruginosa expressing IMP-1, efflux+ (MB9798) MITC95 [5]: 200 µM
Efflux ratio [5]: 64.00
IC50 [6]: 0.378 nM
IC50 [7]: 0.445 nM
IC50 [8]: 2.15 nM
